Test results from ChEMBL document CHEMBL1148600, “Synthesis and in vivo validation of [O-methyl-11C]2-{4-[4-(7-methoxynaphthalen-1-yl)piperazin- 1-yl]butyl}-4-methyl-2H-[1,2,4]triazine-3,5-dione: a novel 5-HT1A receptor agonist positron emission tomography ligand” (J Med Chem, 2006).

Tests used:
Cannabinoid receptor 1 = Cannabinoid receptor 1 (Homo sapiens, UniProt P21554); assay: Binding affinity to CB1 receptor
Histamine H2 receptor = Histamine H2 receptor (Homo sapiens, UniProt P25021); assay: Binding affinity to histamine H2 receptor
[1] = target: Beta-2 adrenergic receptor (Homo sapiens, UniProt P07550)
Sequence of Beta-2 adrenergic receptor (P07550 whole entry): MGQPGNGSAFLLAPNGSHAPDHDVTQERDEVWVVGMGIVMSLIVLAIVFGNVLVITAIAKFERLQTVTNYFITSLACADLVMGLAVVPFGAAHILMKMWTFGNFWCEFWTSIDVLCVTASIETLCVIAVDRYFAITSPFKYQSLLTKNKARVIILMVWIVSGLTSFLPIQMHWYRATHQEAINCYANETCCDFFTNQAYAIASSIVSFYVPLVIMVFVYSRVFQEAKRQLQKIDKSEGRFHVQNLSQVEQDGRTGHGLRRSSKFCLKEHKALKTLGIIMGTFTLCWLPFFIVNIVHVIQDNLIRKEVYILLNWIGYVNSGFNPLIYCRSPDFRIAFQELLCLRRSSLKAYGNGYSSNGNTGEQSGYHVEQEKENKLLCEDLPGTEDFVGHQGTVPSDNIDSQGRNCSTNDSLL

[2] = target: ATP-dependent translocase ABCB1 (Homo sapiens, UniProt P08183); assay: Binding affinity to MDR1
Sequence of ATP-dependent translocase ABCB1 (P08183 whole entry): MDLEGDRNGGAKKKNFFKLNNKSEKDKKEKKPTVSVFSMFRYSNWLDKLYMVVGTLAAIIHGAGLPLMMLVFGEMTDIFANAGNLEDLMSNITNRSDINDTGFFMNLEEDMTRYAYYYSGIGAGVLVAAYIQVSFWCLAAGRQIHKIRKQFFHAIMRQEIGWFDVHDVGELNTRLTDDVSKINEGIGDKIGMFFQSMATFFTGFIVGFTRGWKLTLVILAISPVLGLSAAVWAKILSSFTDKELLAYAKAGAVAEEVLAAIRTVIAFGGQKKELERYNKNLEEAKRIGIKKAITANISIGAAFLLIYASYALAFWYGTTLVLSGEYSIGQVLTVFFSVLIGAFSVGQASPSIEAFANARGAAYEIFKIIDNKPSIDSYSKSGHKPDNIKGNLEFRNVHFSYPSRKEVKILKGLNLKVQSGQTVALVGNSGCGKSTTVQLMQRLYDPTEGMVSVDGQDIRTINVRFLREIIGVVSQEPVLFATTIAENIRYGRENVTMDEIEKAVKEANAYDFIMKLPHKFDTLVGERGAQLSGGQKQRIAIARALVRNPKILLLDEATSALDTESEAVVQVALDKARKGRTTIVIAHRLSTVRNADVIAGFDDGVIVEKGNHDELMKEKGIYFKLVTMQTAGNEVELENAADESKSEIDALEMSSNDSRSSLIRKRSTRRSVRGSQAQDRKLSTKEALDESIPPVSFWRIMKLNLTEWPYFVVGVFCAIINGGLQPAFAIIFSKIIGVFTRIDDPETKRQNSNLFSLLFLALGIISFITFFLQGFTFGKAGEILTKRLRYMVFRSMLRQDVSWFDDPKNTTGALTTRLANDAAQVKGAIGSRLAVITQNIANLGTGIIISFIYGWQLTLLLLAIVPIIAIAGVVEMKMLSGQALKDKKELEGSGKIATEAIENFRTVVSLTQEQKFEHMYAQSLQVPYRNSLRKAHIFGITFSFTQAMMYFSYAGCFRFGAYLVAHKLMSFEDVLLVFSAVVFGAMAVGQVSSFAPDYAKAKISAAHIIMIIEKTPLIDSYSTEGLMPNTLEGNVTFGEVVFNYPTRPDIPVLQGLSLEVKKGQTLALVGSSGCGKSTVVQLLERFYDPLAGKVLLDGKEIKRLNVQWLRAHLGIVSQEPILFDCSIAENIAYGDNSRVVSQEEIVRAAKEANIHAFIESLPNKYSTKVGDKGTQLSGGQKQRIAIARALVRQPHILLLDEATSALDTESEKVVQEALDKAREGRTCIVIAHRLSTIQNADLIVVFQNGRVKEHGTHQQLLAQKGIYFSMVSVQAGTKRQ

[3] = target: T1, 5-hydroxytryptamine receptor 1A (Homo sapiens, UniProt P08908); assay: Agonistic activity at human 5HT1A in CHO cells by the inhibition of forskolin-stimulated cAMP accumulation; assay type: functional, cell-based
T1 sequence (P08908 whole entry): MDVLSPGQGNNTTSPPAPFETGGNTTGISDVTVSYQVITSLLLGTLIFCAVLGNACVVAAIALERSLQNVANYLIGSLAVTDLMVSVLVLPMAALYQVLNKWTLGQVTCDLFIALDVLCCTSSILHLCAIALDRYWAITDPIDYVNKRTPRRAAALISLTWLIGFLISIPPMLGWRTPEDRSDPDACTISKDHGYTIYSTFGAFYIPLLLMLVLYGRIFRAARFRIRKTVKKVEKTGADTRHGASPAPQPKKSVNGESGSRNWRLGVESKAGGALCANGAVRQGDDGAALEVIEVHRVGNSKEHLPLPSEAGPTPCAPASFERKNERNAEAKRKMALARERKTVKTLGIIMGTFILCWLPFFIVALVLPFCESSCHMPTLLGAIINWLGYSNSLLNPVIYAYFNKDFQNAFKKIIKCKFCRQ

D(4) dopamine receptor = D(4) dopamine receptor (Homo sapiens, UniProt P21917); assay: Binding affinity to dopamine D4 receptor
Sequence of D(4) dopamine receptor (P21917 whole entry): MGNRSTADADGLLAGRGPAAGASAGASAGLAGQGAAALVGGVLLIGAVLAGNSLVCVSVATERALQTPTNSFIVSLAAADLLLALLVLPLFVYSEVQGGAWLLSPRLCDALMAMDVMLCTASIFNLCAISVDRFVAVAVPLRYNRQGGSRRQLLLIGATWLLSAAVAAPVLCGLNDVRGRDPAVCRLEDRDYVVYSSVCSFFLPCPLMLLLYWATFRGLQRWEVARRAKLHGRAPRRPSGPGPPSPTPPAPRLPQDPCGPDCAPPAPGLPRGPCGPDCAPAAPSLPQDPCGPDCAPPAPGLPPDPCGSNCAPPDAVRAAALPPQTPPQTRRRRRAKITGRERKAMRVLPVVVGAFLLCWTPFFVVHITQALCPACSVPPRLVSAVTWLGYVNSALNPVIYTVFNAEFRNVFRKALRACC

[4] = target: T1, 5-hydroxytryptamine receptor 1A; assay: Agonistic activity at human 5HT1A receptor by [35S]GTP-gamma-S binding; assay type: functional
[5] = Binding affinity to sodium channel
[6] = target: Chromaffin granule amine transporter (Homo sapiens, UniProt P54219); assay: Binding affinity to VMAT1
[7] = target: Adrenergic receptor alpha-1 (Homo sapiens, UniProt P35348+P25100+P35368); assay: Binding affinity to adrenergic alpha-1 receptor; assay type: protein assay
[8] = target: Voltage-gated inwardly rectifying potassium channel KCNH2 (Homo sapiens, UniProt Q12809); assay: Binding affinity to hERG
[9] = Binding affinity to calcium channel
[10] = target: 5-hydroxytryptamine receptor 2A (Homo sapiens, UniProt P28223); assay: Binding affinity to human 5HT2A receptor
Sequence of 5-hydroxytryptamine receptor 2A (P28223 whole entry): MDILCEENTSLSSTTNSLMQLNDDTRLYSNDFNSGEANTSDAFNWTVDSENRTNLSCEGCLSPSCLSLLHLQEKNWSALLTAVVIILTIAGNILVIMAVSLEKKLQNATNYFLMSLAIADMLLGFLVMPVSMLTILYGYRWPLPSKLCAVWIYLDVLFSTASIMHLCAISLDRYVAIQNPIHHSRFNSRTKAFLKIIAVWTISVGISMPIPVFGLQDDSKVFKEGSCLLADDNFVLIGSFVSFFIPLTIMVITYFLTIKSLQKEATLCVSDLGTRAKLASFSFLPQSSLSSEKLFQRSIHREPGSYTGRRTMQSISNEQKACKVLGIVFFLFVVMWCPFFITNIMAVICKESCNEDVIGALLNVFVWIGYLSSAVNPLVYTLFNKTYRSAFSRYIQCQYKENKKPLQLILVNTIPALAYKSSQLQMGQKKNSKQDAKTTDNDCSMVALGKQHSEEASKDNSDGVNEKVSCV

[11] = target: Beta-3 adrenergic receptor (Homo sapiens, UniProt P13945); assay: Binding affinity to adrenergic beta-3 receptor
[12] = target: Muscarinic acetylcholine receptor; assay: Binding affinity to muscarinic receptor; assay type: protein assay
Histamine H3 receptor = Histamine H3 receptor (Homo sapiens, UniProt Q9Y5N1); assay: Binding affinity to histamine H3 receptor
[13] = target: Delta-type opioid receptor (Homo sapiens, UniProt P41143); assay: Binding affinity to Delta opioid receptor
[14] = target: Serotonin 3 (5-HT3) receptor; assay: Binding affinity to human 5HT3 receptor; assay type: protein-complex assay
[15] = Binding affinity to GABA receptor
[16] = target: Alpha-2B adrenergic receptor (Homo sapiens, UniProt P18089); assay: Binding affinity to adrenergic alpha-2B receptor
D(2) dopamine receptor = D(2) dopamine receptor (Homo sapiens, UniProt P14416); assay: Binding affinity to dopamine D2 receptor
Sequence of D(2) dopamine receptor (P14416 whole entry): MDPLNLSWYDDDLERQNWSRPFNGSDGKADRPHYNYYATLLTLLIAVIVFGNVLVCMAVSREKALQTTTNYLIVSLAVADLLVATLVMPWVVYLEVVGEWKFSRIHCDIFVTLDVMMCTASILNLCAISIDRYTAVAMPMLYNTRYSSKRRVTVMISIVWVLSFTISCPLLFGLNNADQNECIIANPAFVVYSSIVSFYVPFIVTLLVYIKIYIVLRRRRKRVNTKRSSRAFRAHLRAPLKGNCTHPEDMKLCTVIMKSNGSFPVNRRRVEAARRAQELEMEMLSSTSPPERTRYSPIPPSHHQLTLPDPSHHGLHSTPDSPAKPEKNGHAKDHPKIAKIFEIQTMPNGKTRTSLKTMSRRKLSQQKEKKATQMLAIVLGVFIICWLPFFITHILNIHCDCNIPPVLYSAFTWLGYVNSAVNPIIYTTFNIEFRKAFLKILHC

[17] = target: Kappa-type opioid receptor (Homo sapiens, UniProt P41145); assay: Binding affinity to kappa opioid receptor
[18] = target: Glutamate [NMDA] receptor; assay: Binding affinity to NMDA receptor; assay type: protein-complex assay
D(1A) dopamine receptor = D(1A) dopamine receptor (Homo sapiens, UniProt P21728); assay: Binding affinity to dopamine D1 receptor
[19] = target: Tumor necrosis factor receptor superfamily member 16 (Homo sapiens, UniProt P08138); assay: Binding affinity to neurotrophin receptor
Sequence of Tumor necrosis factor receptor superfamily member 16 (P08138 whole entry): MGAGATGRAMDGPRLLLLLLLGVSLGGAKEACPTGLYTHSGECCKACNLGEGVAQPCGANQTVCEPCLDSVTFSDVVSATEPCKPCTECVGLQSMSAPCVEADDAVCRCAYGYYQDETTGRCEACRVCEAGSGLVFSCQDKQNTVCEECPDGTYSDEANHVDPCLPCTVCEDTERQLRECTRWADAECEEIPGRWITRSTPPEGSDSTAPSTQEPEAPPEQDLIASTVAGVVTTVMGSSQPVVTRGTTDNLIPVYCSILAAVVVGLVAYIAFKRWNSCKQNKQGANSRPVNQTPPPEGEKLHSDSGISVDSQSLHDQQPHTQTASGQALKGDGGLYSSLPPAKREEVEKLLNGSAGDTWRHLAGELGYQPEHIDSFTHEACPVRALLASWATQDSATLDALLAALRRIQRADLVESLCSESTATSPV

Adenosine receptor A3 = Adenosine receptor A3 (Homo sapiens, UniProt P0DMS8); assay: Binding affinity to adenosine A3 receptor
Adenosine A2 receptor = Adenosine A2 receptor (Homo sapiens, UniProt P29275+P29274); assay: Binding affinity to adenosine A2 receptor; assay type: protein assay
[20] = target: Sigma non-opioid intracellular receptor 1 (Homo sapiens, UniProt Q99720); assay: Binding affinity to sigma1 receptor
[21] = target: 5-hydroxytryptamine receptor 2C (Homo sapiens, UniProt P28335); assay: Binding affinity to human 5HT2C receptor
[22] = target: Glutamate receptor ionotropic AMPA (Homo sapiens, UniProt P42261+P42262+P42263+P48058); assay: Binding affinity to AMPA receptor; assay type: protein-complex assay
Mu-type opioid receptor = Mu-type opioid receptor (Homo sapiens, UniProt P35372); assay: Binding affinity to mu opioid receptor
[23] = target: Beta-1 adrenergic receptor (Homo sapiens, UniProt P08588); assay: Binding affinity to adrenergic beta-1 receptor
D(1B) dopamine receptor = D(1B) dopamine receptor (Homo sapiens, UniProt P21918); assay: Binding affinity to dopamine D5 receptor
[24] = target: 5-hydroxytryptamine receptor 7 (Homo sapiens, UniProt P34969); assay: Binding affinity to human 5HT7 receptor
[25] = Binding affinity to mGluR
[26] = Binding affinity to NK receptor
Vasopressin V2 receptor = Vasopressin V2 receptor (Homo sapiens, UniProt P30518); assay: Binding affinity to vasopressin 2 receptor
[27] = target: Sodium-dependent dopamine transporter (Homo sapiens, UniProt Q01959); assay: Binding affinity to DAT
[28] = Binding affinity to imidazoline receptor
[29] = target: Alpha-2C adrenergic receptor (Homo sapiens, UniProt P18825); assay: Binding affinity to adrenergic alpha-2C receptor
Sequence of Alpha-2C adrenergic receptor (P18825 whole entry): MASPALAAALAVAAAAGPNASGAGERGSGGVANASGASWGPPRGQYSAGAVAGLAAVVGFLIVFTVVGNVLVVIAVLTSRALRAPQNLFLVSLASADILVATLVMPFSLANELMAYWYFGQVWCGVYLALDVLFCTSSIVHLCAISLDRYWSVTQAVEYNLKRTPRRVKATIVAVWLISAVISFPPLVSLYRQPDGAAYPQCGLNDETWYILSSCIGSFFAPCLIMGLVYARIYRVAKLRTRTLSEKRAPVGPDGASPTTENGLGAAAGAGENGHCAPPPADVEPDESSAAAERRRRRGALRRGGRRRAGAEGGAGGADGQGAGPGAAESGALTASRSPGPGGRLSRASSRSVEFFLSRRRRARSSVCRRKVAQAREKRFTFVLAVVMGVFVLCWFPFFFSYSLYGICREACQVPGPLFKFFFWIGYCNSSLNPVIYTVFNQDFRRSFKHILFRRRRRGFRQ

Cannabinoid receptor 2 = Cannabinoid receptor 2 (Homo sapiens, UniProt P34972); assay: Binding affinity to CB2 receptor
[30] = target: Alpha-2A adrenergic receptor (Homo sapiens, UniProt P08913); assay: Binding affinity to adrenergic alpha-2A receptor
D(3) dopamine receptor = D(3) dopamine receptor (Homo sapiens, UniProt P35462); assay: Binding affinity to dopamine D3 receptor
[31] = target: 5-hydroxytryptamine receptor 5A (Homo sapiens, UniProt P47898); assay: Binding affinity to human 5HT5A receptor
Sequence of 5-hydroxytryptamine receptor 5A (P47898 whole entry): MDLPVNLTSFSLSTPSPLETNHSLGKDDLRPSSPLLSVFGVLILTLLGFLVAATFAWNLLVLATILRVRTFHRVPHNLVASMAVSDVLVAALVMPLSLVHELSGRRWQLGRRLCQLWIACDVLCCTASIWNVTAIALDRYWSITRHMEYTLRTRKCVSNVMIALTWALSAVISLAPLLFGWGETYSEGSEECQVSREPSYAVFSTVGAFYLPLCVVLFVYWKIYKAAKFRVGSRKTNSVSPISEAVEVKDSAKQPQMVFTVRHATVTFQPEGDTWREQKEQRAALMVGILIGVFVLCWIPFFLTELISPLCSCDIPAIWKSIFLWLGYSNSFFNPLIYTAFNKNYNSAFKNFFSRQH

Adenosine receptor A2a = Adenosine receptor A2a (Homo sapiens, UniProt P29274); assay: Binding affinity to adenosine […] receptor
[32] = target: Synaptic vesicular amine transporter (Homo sapiens, UniProt Q05940); assay: Binding affinity to VMAT2
Sequence of Synaptic vesicular amine transporter (Q05940 whole entry): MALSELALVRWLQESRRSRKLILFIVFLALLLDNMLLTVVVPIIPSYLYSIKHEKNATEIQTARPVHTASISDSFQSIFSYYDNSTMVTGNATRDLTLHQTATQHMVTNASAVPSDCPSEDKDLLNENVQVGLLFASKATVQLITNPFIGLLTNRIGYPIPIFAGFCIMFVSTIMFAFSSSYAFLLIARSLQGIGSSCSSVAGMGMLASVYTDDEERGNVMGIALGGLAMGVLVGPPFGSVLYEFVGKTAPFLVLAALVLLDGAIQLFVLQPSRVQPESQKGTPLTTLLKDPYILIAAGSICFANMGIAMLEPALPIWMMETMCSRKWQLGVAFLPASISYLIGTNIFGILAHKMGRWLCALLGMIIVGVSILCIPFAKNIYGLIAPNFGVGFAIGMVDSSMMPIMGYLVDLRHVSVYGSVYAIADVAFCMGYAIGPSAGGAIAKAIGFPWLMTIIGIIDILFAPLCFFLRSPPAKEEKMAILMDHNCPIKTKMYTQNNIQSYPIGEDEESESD

Histamine H1 receptor = Histamine H1 receptor (Homo sapiens, UniProt P35367); assay: Binding affinity to histamine H1 receptor
[33] = target: Sodium-dependent noradrenaline transporter (Homo sapiens, UniProt P23975); assay: Binding affinity to NET
[34] = target: Sodium-dependent serotonin transporter (Homo sapiens, UniProt P31645); assay: Binding affinity to SERT
[35] = target: T1, 5-hydroxytryptamine receptor 1A; assay: Displacement of [3H]8-OH-DPAT from human 5HT1A receptor expressed in CHO cells; assay type: cell-based
[36] = Binding affinity to prostanoid receptor
[37] = target: 5-hydroxytryptamine receptor 6 (Homo sapiens, UniProt P50406); assay: Binding affinity to human 5HT6 receptor
Sigma 2 receptor = assay: Binding affinity to sigma2 receptor
Vasopressin V1 receptor = Vasopressin V1 receptor (Homo sapiens, UniProt P37288+P47901); assay: Binding affinity to vasopressin 1 receptor; assay type: protein assay
Histamine H4 receptor = Histamine H4 receptor (Homo sapiens, UniProt Q9H3N8); assay: Binding affinity to histamine H4 receptor

## Cn1c(=O)cnn(CCCCN2CCN(c3cccc4ccc(O[11CH3])cc34)CC2)c1=O
Cannabinoid receptor 1
  Ki: > 10000 nM
Histamine H2 receptor
  Ki: 302 nM
[1]
  Ki: 60.6 nM
[2]
  Ki: > 10000 nM
[3]
  EC50: 0.01 nM
D(4) dopamine receptor
  Ki: 8.5 nM
[4]
  EC50: 0.05 nM
[5]
  Ki: > 10000 nM
[6]
  Ki: > 10000 nM
[7]
  Ki: 32.2 nM
[8]
  Ki: > 10000 nM
[9]
  Ki: > 10000 nM
[10]
  Ki: 41.5 nM
[11]
  Ki: > 10000 nM
[12]
  Ki: > 10000 nM
Histamine H3 receptor
  Ki: > 10000 nM
[13]
  Ki: > 10000 nM
[14]
  Ki: > 10000 nM
[15]
  Ki: > 10000 nM
[16]
  Ki: 316 nM
D(2) dopamine receptor
  Ki: 22 nM
[17]
  Ki: > 10000 nM
[18]
  Ki: > 10000 nM
D(1A) dopamine receptor
  Ki: 7400 nM
[19]
  Ki: > 10000 nM
Adenosine receptor A3
  Ki: > 10000 nM
Adenosine A2 receptor
  Ki: > 10000 nM
[20]
  Ki: 480 nM
[21]
  Ki: 99.6 nM
[22]
  Ki: > 10000 nM
Mu-type opioid receptor
  Ki: > 10000 nM
[23]
  Ki: 476 nM
D(1B) dopamine receptor
  Ki: > 10000 nM
[24]
  Ki: 9.1 nM
[25]
  Ki: > 10000 nM
[26]
  Ki: > 10000 nM
Vasopressin V2 receptor
  Ki: > 10000 nM
[27]
  Ki: 407 nM
[28]
  Ki: > 10000 nM
[29]
  Ki: 23.7 nM
Cannabinoid receptor 2
  Ki: > 10000 nM
[30]
  Ki: 1010 nM
D(3) dopamine receptor
  Ki: 62.8 nM
[31]
  Ki: 229 nM
Adenosine receptor A2a
  Ki: > 10000 nM
[32]
  Ki: > 10000 nM
Histamine H1 receptor
  Ki: 150 nM
[33]
  Ki: 6980 nM
[34]
  Ki: 6140 nM
[35]
  Ki: 1.36 nM
[36]
  Ki: > 10000 nM
[37]
  Ki: 120 nM
Sigma 2 receptor
  Ki: > 10000 nM
Vasopressin V1 receptor
  Ki: > 10000 nM
Histamine H4 receptor
  Ki: > 10000 nM
